Results on seven compounds are retold here after patent US7476646B1, “Agricultural promoters/active ingredients” (CJB Industries, Inc., priority 2004, dated 2009).

Experiment [1] has as its system Erwinia carotovora. The experiment can be described thus: Effect of quat salts on Erwinia carotovora (percent inhibition). It counts as cell-based. Here is the method:
To measure the antibacterial effectiveness of the quat salts, the effect of various salts, at an application rate of 50 ppm, was measured. The data regarding the effectiveness is summarized below:
The effectiveness of lower concentrations of the quat salts at inhibiting Erwinia carotovora infection was also measured, where various additives were also added.

In experiment [2] the test system is Staphylococcus. The note with it: on Staphylococcus; cited from earlier work.
For experiment [3] the following is noted: on contact lenses; cited from earlier work.
Experiment [4] concerns fungal and bacterial pathogens. As to the kind of experiment: Field control trial, plant growth, grower rating, phytotoxicity, overall control. Format: in vivo. As to conditions: comparison area. The text has this:
This composition was applied to a field to which other treatments had been applied. The conditions under which this field control was studies are summarized below.
Treatment—400 ppm Dicocodimethylammonium chloride+1200 ppm EDTA+400 ppm Citric acid+40 ppm soyamine+3000 ppm soybean oil+180 ppm Tergitol NP-6
The field was visited the day of application for a pre-spray disease rating. Major problems were observed, and minor problems were observed as well. Ratings were made on the major diseases Bacterial Spot, Grey Mold, Blight, and Leaf Spot. The observations and % ratings were also taken for Rhizoctonia, Powdery Mildew, Stem Rot, and Bacterial Speck.
The quat salt treatment was applied at a rate of 1 gallon of the composition/100 gallons of water/acre. This relatively low treatment rate provided some concerns regarding complete coverage due to the low volume of water and bushiness of the plants. Blight and Stem Rot were both located at the lower portion of the plant and concealed by a lot of foliage.
Four plants had been marked on day 1 so that their progress could be tracked both in terms of growth and disease control. All four had grown between 5 and 7 inches in height with a tremendous amount of flowering and new growth present.
The grower gave the Treatment a 4 on a scale of 1 (Poor) to 5 (Perfect), when compared to hydrogen peroxide. H is rating for hydrogen peroxide was 2.5 to 3.

As for Dicoco dimethyl ammonium chloride, the “Percent Inhibition” value in experiment [1] (30 ppm dicoco dimethyl ammonium chloride with additive (level relative to quat)) came to 40%; in experiment [1] (application rate of 50 ppm), 75%.
In the case of Ditallow dimethyl ammonium chloride, the “Percent Inhibition” value in experiment [1] (application rate of 50 ppm) is listed as 50%.
As to Benzalkonium chloride [BAC], the “effectiveness relative to other QACs tested” value in experiment [2] is listed as “about 2.5”. Moreover, in experiment [3], the “effectiveness relative to other QACs” value was “about 6 times”.
As for Tallowalkyltrimethyl ammonium chloride, in experiment [1] (application rate of 50 ppm), the “Percent Inhibition” value stood at 30%.
For Soyalkyltrimethyl ammonium chloride, the “Percent Inhibition” value in experiment [1] (application rate of 50 ppm) is 35%.
For `S=C([S-])NCCNC(=S)[S-].[Zn+2]` [Dithane, zinc ethylenebis(dithiocarbamate)], the “response of diseases in treated area” value in experiment [4] was “responding (especially on molds and mildews) but not as rapid and completely”.
For Cocoalkyltrimethyl ammonium chloride, the “Percent Inhibition” value in experiment [1] (application rate of 50 ppm) was determined as 25%.
